# System: non-constipation IBS
# Test: Combined first and second studies (TARGET 1 and 2): pooled efficacy, sustained response and recurrence
# Type: in vivo, human
# Parameters: Responders: abdominal pain reduction of 2 point in median / Responders: abdominal pain reduction of 3 point in median / Responders: abdominal pain reduction of 1 point in weekly median / Responders: abdominal pain reduction of 1 point in weekly mean / Responders: abdominal pain reduction of 2 point in mean: concentration or dose not given beside the values
# Experimental: A measure of efficacy is based on subjects' answers to the Weekly Subject Global Assessment (SGA) questions over the study duration in relation to their IBS symptoms.
# An evaluation of the enrolled subjects was carried out after the Primary Evaluation Period in the study described in Examples 5-7. […] Subjects with no recurrence are defined as having a stool consistency score of less than 4, abdominal pain reduced by at least 30 percent or both.
# [1] = Combined, at least 2 weeks during PEP
# [2] = Rolling 2-5 Weeks, Rifaximin (N = 624), n (%)
# [3] = Rolling 3-6 Weeks, Rifaximin (N = 624), n (%)
# [4] = Rolling 4-7 Weeks, Rifaximin (N = 624), n (%)
# [5] = Rolling 4 Weeks: 4-7 Weeks, N = 624
# [6] = Rolling 4 Weeks: 5-8 Weeks, N = 624
# [7] = Rolling 4 Weeks: 6-9 Weeks, N = 624
# [8] = Rolling 4 Weeks: 7-10 Weeks, N = 624
smiles,measurement,setting,value
"CO[C@H]1/C=C/O[C@@]2(C)Oc3c(C)c(O)c4c(O)c(c5c(nc6cc(C)ccn65)c4c3C2=O)NC(=O)/C(C)=C\C=C\[C@H](C)[C@H](O)[C@@H](C)[C@@H](O)[C@@H](C)[C@H](OC(C)=O)[C@@H]1C [Rifaximin, (2S,16Z,18E,20S,21S,22R,23R,24R,25S,26S,27S,28E)-5,6,21,23,25 Pentahydroxy-27-methoxy-2,4,11,16,20,22,24,26-octamethyl-2,7-(epoxypentadeca-(1,11,13)trienimino) benzofuro (4,5-e) pyrido(1,2-a) benzimidazole-1,15(2H)-dione,25-acetate]",IBS symptom of bloating: adequate relief at least 2 out of 4 weeks during weeks 3 through 6 (weekly question),Combined,40%
same,Global IBS symptoms: adequate relief at least 2 out of 4 weeks during weeks 3 through 6 (weekly question),"Combined, 550 mg TID 14 d",32% vs 41%
same,Responders: abdominal pain reduction of 1 point in weekly mean,[1],52%
same,Responders: abdominal pain reduction of 1 point in weekly median,[1],63%
same,Responders: abdominal pain reduction of 2 point in mean,[1],25%
same,Responders: abdominal pain reduction of 2 point in median,[1],39%
same,Responders: abdominal pain reduction of 3 point in mean,[1],6% vs 7%
same,Responders: abdominal pain reduction of 3 point in median,[1],21%
same,Responders: daily abdominal pain < 2 for at least 50% of days in a week,[1],39%
same,Responders: overall reduction of mean weekly abdominal pain by >= 25%,[1],57%
same,Responders: overall reduction of mean weekly abdominal pain by >= 50%,[1],35%
same,Responders: overall reduction of mean weekly abdominal pain by >= 75%,[1],14%
same,Responders: overall reduction of median weekly abdominal pain by >= 25%,[1],62%
same,Responders: overall reduction of median weekly abdominal pain by >= 50%,[1],44%
same,Responders: overall reduction of median weekly abdominal pain by >= 75%,[1],21%
same,"Sustained Durable Response (No Recurrence), Abdominal Pain & Stool Consistency: % of subjects",N = 624,(33.2%)
same,"Sustained Durable Response (No Recurrence), Abdominal Pain & Stool Consistency: number of subjects",N = 624,207
same,"Sustained Durable Response (No Recurrence), Abdominal Pain: % of subjects",N = 624,(35.7%)
same,"Sustained Durable Response (No Recurrence), Abdominal Pain: number of subjects",N = 624,223
same,"Sustained Durable Response (No Recurrence), Stool Consistency: % of subjects",N = 624,(68.9%)
same,"Sustained Durable Response (No Recurrence), Stool Consistency: number of subjects",N = 624,430
same,"Abdominal Pain or Stool Consistency, Sustained Durable Response","Rifaximin (N = 624), n (%)",180 (28.8%)
same,"Abdominal Pain or Stool Consistency, No Recurrence",[2],286 (45.8%)
same,"Abdominal Pain or Stool Consistency, Recurrence",[2],12 (1.9%)
same,"Abdominal Pain or Stool Consistency, No Recurrence",[3],274 (43.9%)
same,"Abdominal Pain or Stool Consistency, Recurrence",[3],23 (3.7%)
same,"Abdominal Pain or Stool Consistency, No Recurrence",[4],251 (40.2%)
same,"Abdominal Pain or Stool Consistency, Recurrence",[4],17 (2.7%)
same,"No Recurrence, Abdominal Pain & Stool Consistency: % of subjects",[5],(48.2%)
same,"No Recurrence, Abdominal Pain & Stool Consistency: number of subjects",[5],301
same,"No Recurrence, Abdominal Pain: % of subjects",[5],(51.9%)
same,"No Recurrence, Abdominal Pain: number of subjects",[5],324
same,"No Recurrence, Stool Consistency: % of subjects",[5],(78.8%)
same,"No Recurrence, Stool Consistency: number of subjects",[5],492
same,"Recurrence, Abdominal Pain & Stool Consistency: % of subjects",[5],3.7%
same,"Recurrence, Abdominal Pain & Stool Consistency: number of subjects",[5],23
same,"Recurrence, Abdominal Pain: % of subjects",[5],3.8%
same,"Recurrence, Abdominal Pain: number of subjects",[5],24
same,"Recurrence, Stool Consistency: % of subjects",[5],1.3%
same,"Recurrence, Stool Consistency: number of subjects",[5],8
same,"No Recurrence, Abdominal Pain & Stool Consistency: % of subjects",[6],(44.6%)
same,"No Recurrence, Abdominal Pain & Stool Consistency: number of subjects",[6],278
same,"No Recurrence, Abdominal Pain: % of subjects",[6],(48.1%)
same,"No Recurrence, Abdominal Pain: number of subjects",[6],300
same,"No Recurrence, Stool Consistency: % of subjects",[6],(77.6%)
same,"No Recurrence, Stool Consistency: number of subjects",[6],484
same,"Recurrence, Abdominal Pain & Stool Consistency: % of subjects",[6],3.2%
same,"Recurrence, Abdominal Pain & Stool Consistency: number of subjects",[6],20
same,"Recurrence, Abdominal Pain: % of subjects",[6],3.0%
same,"Recurrence, Abdominal Pain: number of subjects",[6],19
same,"Recurrence, Stool Consistency: % of subjects",[6],2.1%
same,"Recurrence, Stool Consistency: number of subjects",[6],13
same,"No Recurrence, Abdominal Pain & Stool Consistency: % of subjects",[7],(41.3%)
same,"No Recurrence, Abdominal Pain & Stool Consistency: number of subjects",[7],258
same,"No Recurrence, Abdominal Pain: % of subjects",[7],(45.0%)
same,"No Recurrence, Abdominal Pain: number of subjects",[7],281
same,"No Recurrence, Stool Consistency: % of subjects",[7],(75.5%)
same,"No Recurrence, Stool Consistency: number of subjects",[7],471
same,"Recurrence, Abdominal Pain & Stool Consistency: % of subjects",[7],2.2%
same,"Recurrence, Abdominal Pain & Stool Consistency: number of subjects",[7],14
same,"Recurrence, Abdominal Pain: % of subjects",[7],2.4%
same,"Recurrence, Abdominal Pain: number of subjects",[7],15
same,"Recurrence, Stool Consistency: % of subjects",[7],2.6%
same,"Recurrence, Stool Consistency: number of subjects",[7],16
same,"No Recurrence, Abdominal Pain & Stool Consistency: % of subjects",[8],(39.1%)
same,"No Recurrence, Abdominal Pain & Stool Consistency: number of subjects",[8],244
same,"No Recurrence, Abdominal Pain: % of subjects",[8],(42.6%)
same,"No Recurrence, Abdominal Pain: number of subjects",[8],266
same,"No Recurrence, Stool Consistency: % of subjects",[8],(72.9%)
same,"No Recurrence, Stool Consistency: number of subjects",[8],455
same,"Recurrence, Abdominal Pain & Stool Consistency: % of subjects",[8],1.8%
same,"Recurrence, Abdominal Pain & Stool Consistency: number of subjects",[8],11
